Earlier results, collected in PMC7365549 (ACS Omega, 2020).

Columns and labels:
5-HT3 = conditions: read-out: Ki, binding to 5-HT3 receptor
[1] = target: T1, human serotonin receptor 5-HT3 (Homo sapiens, UniProt P46098); conditions: read-out: Inhibition Constants (Ki) 5-HT3; comparison values
T1 sequence (P46098 24-478): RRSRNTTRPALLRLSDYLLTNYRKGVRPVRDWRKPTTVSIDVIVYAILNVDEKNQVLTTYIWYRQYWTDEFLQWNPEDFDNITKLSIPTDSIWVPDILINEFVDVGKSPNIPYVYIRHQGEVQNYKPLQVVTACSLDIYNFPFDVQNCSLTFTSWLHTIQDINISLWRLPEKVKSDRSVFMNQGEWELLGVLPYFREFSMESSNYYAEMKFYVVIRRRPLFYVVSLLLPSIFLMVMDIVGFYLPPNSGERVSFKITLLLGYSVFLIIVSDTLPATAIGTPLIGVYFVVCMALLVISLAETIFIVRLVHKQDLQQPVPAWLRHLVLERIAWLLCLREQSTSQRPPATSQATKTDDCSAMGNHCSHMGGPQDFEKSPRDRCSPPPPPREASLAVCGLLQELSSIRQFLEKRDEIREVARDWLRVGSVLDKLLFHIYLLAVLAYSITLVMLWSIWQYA

[2] = target: T2, human serotonin receptor 5-HT1A (Homo sapiens, UniProt P08908); conditions: read-out: Inhibition Constants (Ki) 5-HT1A; comparison values
T2 sequence (P08908 1-422): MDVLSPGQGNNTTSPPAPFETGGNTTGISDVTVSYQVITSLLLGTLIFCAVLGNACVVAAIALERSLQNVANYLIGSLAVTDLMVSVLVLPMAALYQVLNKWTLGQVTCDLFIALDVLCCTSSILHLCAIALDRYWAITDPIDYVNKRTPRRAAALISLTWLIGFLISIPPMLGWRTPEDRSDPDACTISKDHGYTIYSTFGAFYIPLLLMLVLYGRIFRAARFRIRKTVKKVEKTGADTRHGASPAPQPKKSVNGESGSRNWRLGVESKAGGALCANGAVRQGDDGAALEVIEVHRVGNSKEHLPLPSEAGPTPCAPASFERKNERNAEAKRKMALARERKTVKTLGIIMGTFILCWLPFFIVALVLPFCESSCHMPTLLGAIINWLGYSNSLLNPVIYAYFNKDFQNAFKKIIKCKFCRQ

[3] = target: human serotonin receptor 5-HT2A (Homo sapiens, UniProt P28223); conditions: read-out: Inhibition Constants (Ki) 5-HT2A; comparison values
human serotonin receptor 5-HT2A, sequence (P28223 whole entry): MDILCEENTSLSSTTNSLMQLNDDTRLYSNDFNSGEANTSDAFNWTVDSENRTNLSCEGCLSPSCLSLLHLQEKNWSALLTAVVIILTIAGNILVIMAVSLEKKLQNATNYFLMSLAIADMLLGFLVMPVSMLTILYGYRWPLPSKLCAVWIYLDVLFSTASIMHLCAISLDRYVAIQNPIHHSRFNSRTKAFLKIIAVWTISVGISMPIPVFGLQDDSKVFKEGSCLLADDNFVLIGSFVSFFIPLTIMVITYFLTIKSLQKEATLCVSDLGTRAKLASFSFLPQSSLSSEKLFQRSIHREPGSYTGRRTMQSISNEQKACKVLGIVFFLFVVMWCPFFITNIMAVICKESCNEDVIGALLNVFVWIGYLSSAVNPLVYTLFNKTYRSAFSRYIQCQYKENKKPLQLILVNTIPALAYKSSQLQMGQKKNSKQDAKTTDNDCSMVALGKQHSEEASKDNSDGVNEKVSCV

Row | Structure (SMILES) | Ki (5-HT3) | Ki [1] | Ki [2] | Ki [3]
1 | C[N+](C)(C)CCc1c[nH]c2ccc([O-])cc12 [Bufotenidine, bufotenidine] | 0.017 µM | – | – | –
2 | CN(C)CCc1c[nH]c2cccc(O)c12 [psilocin] | – | > 10 µM | – | –
3 | CN(C)CCc1c[nH]c2cccc(OP(=O)(O)O)c12 [psilocybin] | – | > 10 µM | > 10 µM | > 10 µM
